Structures are written as SMILES.

The term IC50 denotes the point on the concentration scale where inhibition reaches its midpoint. In general, fraction remaining refers to the share of the starting amount still present when the sample was taken. Low readings indicate a greater loss, high ones greater stability. The term Ki denotes the dissociation constant of the complex between target and ligand, obtained from inhibition or displacement. Read a high Ki as lower affinity.

For one data set, the target named is T1, CYP2D6 (Homo sapiens, UniProt P10635).
T1 construct: purchased Promega
The data set is described as follows: CYP2D6 P450-Glo assay (drug–drug interactions). In kind it is biochemical. As to conditions: 0.01–25 µM. As for the experimental part:
The potential risk of drug–drug interactions (DDIs) was examined in luminescence-based CYP3A4 and CYP2D6 P450-Glo assays (Promega, Madison, WI, USA) (Figure 2A,B).
The influence on CYP3A4 and CYP2D6 activity by ligands was analyzed with luminescent CYP3A4 P450-Glo and CYP2D6 P450-Glo^TM (Madison, WI, USA). The compounds were tested in triplicate. The bioluminescence signal was measured with a microplate reader, Spark Cyto (Tecan, Männedorf, Switzerland), in the luminescence mode. Compounds were tested in triplicate in the range of 0.01–25 µM for both isoforms’ P450 cytochrome. KE and QD were used as the reference compounds for CYP3A4 and CYP2D6, respectively.

For a further data set, the system named is U-251 glioblastoma cells. The data set can be described thus: Antiproliferative activity (MTS), U-251. The conditions noted are these: Homo sapiens, U-251, 72 h, read-out: IC50 Values U-251.
Data set [1] is described as follows: Metabolic stability in mouse liver microsomes (MLMs). In kind it is in vitro ADME. The conditions noted are these: 120 min; for remaining at 2 h, 50 µM: mouse, mouse liver microsomes. As for the experimental part:
The metabolic stability of PR 68, PR 73, and PR 76 were determined in mouse liver microsomes (MLMs).
The metabolic stability of PR 68 was estimated with mouse liver microsomes (MLMs) (Sigma-Aldrich, St. Louis, MO, USA). […] Cold methanol was then added to the reaction mixture to quench the reaction. The precipitated MLMs were centrifuged, and the supernatant was analyzed by LC/MS with a Waters ACQUITY™ TQD system with a TQ detector (Waters, Milford, USA).
(1 picture or pasted object on this page, not shown here)
On the technique in general: Liver microsomes are a subcellular fraction often used to study metabolism.

In data set [2] the test system is HepG2 human hepatoma cell line. The data set can be described thus: Hepatotoxicity, MTS assay. The class given is cell-based. The conditions noted are these: 1–10 µM, 48 h. The method, then:
The safety profile was estimated in the hepatotoxicity assay in the hepatoma HepG2 cell line (Figure 2B).
Hepatotoxicity was evaluated employing an MTS assay with a HepG2 human hepatoma cell line (ATCC: HB-8065). In brief, the cells were incubated for 48 h in 96-well plates with PR 68 (concentration range: 1–100 μM), or doxorubicin (DX, 1 µM; Sigma-Aldrich), which served as a control. Compounds were tested in a single experiment in quadruplicate. The absorbance in the MTS assay was measured by the Spark Cyto microplate reader (Tecan, Männedorf, Switzerland).

Data set [3] addresses human serum albumin (HSA) (Homo sapiens, UniProt P02768). The data set can be described thus: Binding to HSA, Chiralpak HSA column. The conditions noted are these: Chiralpak HSA column. The essentials: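 HSA binding (%HSA) was estimated by HPLC on a Chiralpak HSA column at 30 °C and 0.9 mL/min. The gradient ran 0–20% isopropanol in 50 mM ammonium acetate over 15 min, then held 12 min. UV detection covered 190–300 nm, and values were calibrated against reference compounds, in triplicate.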

For another data set, the system named is U87MG glioblastoma cells. The data set is described as follows: Antiproliferative activity (MTS), U87MG. As to conditions: Homo sapiens, U-87 MG, 72 h, read-out: IC50 Values U87MG.
For another data set, the system named is HEK293. The data set can be described thus: Cytotoxic activity on HEK293. In kind it is cell-based. The conditions noted are these: Homo sapiens. The source says:
Table 6 Extended receptor affinity study, with functional tests and cytotoxic activity of selected compounds on HEK293. | column: HEK293 / IC50 [µM]

The target in a further data set is D2L receptor (Homo sapiens, UniProt P14416). The data set is described as follows: [3H]-raclopride radioligand binding assay, D2.
Data set [4] concerns AsPC-1 pancreas adenocarcinoma cell line. The data set can be described thus: Antiproliferative activity (MTS), AsPC-1. As to conditions: Homo sapiens, ASPC1, 72 h, read-out: IC50 Values AsPC-1.

Sequence of human serum albumin (HSA) (P02768 25-609): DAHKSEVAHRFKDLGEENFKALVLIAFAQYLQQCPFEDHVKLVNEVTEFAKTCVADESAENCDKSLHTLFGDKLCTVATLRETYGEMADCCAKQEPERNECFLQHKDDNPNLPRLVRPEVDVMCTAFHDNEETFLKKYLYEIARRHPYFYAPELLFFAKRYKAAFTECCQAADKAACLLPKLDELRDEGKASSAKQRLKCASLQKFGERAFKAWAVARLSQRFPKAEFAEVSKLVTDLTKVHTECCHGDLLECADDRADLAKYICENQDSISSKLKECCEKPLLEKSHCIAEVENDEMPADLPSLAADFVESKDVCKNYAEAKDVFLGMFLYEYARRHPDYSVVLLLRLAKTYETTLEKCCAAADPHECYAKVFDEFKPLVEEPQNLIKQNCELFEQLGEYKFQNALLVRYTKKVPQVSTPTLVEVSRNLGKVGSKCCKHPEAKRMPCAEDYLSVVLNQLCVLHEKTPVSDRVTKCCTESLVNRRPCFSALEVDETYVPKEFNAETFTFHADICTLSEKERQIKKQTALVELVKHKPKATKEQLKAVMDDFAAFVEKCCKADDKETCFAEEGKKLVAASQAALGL
Sequence of D2L receptor (P14416 whole entry): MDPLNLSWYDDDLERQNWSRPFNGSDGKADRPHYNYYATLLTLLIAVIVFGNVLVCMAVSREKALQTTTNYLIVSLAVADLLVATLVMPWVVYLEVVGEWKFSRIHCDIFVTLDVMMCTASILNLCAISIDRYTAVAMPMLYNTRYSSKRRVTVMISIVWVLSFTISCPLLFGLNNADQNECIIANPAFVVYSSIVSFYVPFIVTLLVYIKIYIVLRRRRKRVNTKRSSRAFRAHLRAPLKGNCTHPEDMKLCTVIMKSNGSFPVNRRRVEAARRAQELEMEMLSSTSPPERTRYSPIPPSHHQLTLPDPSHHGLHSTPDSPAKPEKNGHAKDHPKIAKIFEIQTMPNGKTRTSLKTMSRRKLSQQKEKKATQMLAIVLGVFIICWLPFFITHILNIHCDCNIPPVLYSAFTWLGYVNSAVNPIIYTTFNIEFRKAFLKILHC
T1 sequence (P10635 whole entry): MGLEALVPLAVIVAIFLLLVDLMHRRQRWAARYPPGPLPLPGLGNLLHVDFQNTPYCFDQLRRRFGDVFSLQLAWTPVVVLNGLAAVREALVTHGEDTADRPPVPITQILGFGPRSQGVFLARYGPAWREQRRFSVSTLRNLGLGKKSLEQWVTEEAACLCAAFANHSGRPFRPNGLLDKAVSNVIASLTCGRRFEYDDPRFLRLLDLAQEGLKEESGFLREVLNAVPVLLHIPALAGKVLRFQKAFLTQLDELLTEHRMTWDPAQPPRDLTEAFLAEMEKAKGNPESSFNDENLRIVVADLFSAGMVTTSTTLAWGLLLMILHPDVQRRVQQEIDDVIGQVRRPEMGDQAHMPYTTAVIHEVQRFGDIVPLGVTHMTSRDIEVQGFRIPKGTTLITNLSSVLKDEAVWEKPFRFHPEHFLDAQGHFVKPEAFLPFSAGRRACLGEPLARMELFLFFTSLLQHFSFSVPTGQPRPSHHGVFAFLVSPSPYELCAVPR

In the case of `CC1NC(NS(=O)(=O)c2cccc3ccccc23)=Nc2cccc(Cl)c21` (stereo not drawn) [PR 68, N -(5-chloro-4-methyl-3,4-dihydroquinazolin-2-yl)naphthalene-1-sulfonamide], the “drug–drug interactions, CYP2D6 activity” value at CYP2D6 is listed as “should not exhibit drug–drug interactions”. The IC50 in the data set with U-251 glioblastoma cells is > 25 µM; in the data set with U87MG glioblastoma cells it was > 25 µM; in the data set on HEK293, 81.8 µM; in data set [4] it was > 25 µM. In data set [1], this molecule gave a metabolized of 49%. In data set [1], this molecule displayed a fraction remaining at 2 h, 50 µM of 51.1%. Moreover, in data set [2], the “hepatotoxicity, HepG2 viability” value is reported as “did not exhibit hepatotoxic properties”. Also, the “%HSA” value in data set [3] is given as 97.7%. In addition, in data set [3], the logKHSA came to 1.5. This molecule showed an inhibitory constant (Ki) at D2L receptor of 622 µM.

Consider `CC1NC(NS(=O)(=O)c2cccc3ccccc23)=Nc2cccc(F)c21` (stereo not drawn) [PR 73, N -(5-fluoro-4-methyl-3,4-dihydroquinazolin-2-yl)naphthalene-1-sulfonamide], for which the IC50 (in the data set on U-251 glioblastoma cells; in the data set on U87MG glioblastoma cells; in data set [4]) was > 25 µM in each case. For the same molecule, the share remaining at 2 h, 50 µM in [1] was 24.6%. In data set [3], the “%HSA” value is 96.6%. In data set [3], this molecule had a logKHSA of 1.3. The Ki at D2L receptor was 146 µM.

(Values after publication PMC11477289, “Low-Basicity 5-HT6 Receptor Ligands from the Group of Cyclic Arylguanidine Derivatives and Their Antiproliferative Activity Evaluation” (International Journal of Molecular Sciences, 2024).)
